For one assay, the target named is vaccinia virus D10 decapping enzyme (His-tagged, WT) (Vaccinia virus, UniProt P04312). Put plainly: biochemical. It is filed as biochemical.
Conditions: not given
Regarding `Cc1cn([C@@H]2O[C@H](COP(=O)(O)OP(=O)(O)OP(=O)(O)O)[C@@H](O)[C@H]2O)c(=O)nc1N` [5-methyl-CTP], the “Inhibition of the decapping reaction (in words)” value (“Inhibition” for short) is listed as “unable to affect the activity of the enzyme”.

On to `Cc1cn([C@@H]2O[C@H](COP(=O)(O)OP(=O)(O)OP(=O)(O)O)[C@@H](O)[C@H]2O)c(=O)[nH]c1=O` [5-methyl-UTP], for which the “Inhibition” value is reported as “unable to affect the activity of the enzyme”. For `Nc1ccn([C@@H]2O[C@H](COP(=O)(O)OP(=O)(O)O)[C@@H](O)[C@H]2O)c(=O)n1` [CDP], the “Inhibition” value is “unable to affect the activity of the enzyme”. For `Nc1ccn([C@@H]2O[C@H](COP(=O)(O)OP(=O)(O)OP(=O)(O)O)[C@@H](O)[C@H]2O)c(=O)n1` [CTP], the “Inhibition” value was “no inhibition”. What is called IC50 is the concentration that gives 50% inhibition. Higher therefore signals weaker potency in that assay. By Ki is commonly meant the dissociation constant of the complex between target and ligand, obtained from inhibition or displacement. As for `Nc1nc2nc[nH]c2c(=O)[nH]1` [Guanine], the IC50 is greater than 200 µM, the “Inhibition” value is on record as “did not affect the decapping reaction” and the inhibitory constant (Ki) was greater than 0.8 µM. For the compound `NC(=O)c1ncn([C@@H]2O[C@H](CO[P@@](=O)(O)O[P@](=O)(O)OP(=O)(O)O)[C@@H](O)[C@H]2O)n1` [Ribavirin triphosphate], the IC50 was greater than 200 µM and the Ki is greater than 0.8 µM. For `O=c1ccn([C@@H]2O[C@H](COP(=O)(O)OP(=O)(O)O)[C@@H](O)[C@H]2O)c(=O)[nH]1` [UDP], the “Inhibition” value is “unable to affect the activity of the enzyme”.

Consider `O=c1ccn([C@@H]2O[C@H](COP(=O)(O)OP(=O)(O)OP(=O)(O)O)[C@@H](O)[C@H]2O)c(=O)[nH]1` [UTP], for which the “Inhibition” value is recorded as “no inhibition”. For the compound `O=P(O)(O)OP(=O)(O)O` [pyrophosphate], the “Inhibition” value is on record as “unable to inhibit”. In the case of `O=P(O)(O)OP(=O)(O)OP(=O)(O)O` [tripolyphosphate], the “Inhibition” value is given as “unable to inhibit”.

Staying with this assay, now noted: 0.25 h, read-out: Relative decapping activity (%) (100 µM analog).
Turning to `Nc1nc2nc[nH]c2c(=O)[nH]1` [Guanine], the remaining activity at 100 µM was 92 ± 4%.

For the compound `NC(=O)c1ncn([C@@H]2O[C@H](CO[P@@](=O)(O)O[P@](=O)(O)OP(=O)(O)O)[C@@H](O)[C@H]2O)n1` [Ribavirin triphosphate], the remaining activity at 100 µM stood at 96 ± 3%.

For the origin of these results see paper PMC2995054 (Nucleic Acids Research, 2010).
